# “Also recorded” adds a separate entry of the source. Where two headings read alike, the source gives them in different places. Primed or numbered codes have the meaning given here. FITC′ = not defined here
# B1: cyclin G, endogenous, in primary mouse hepatocytes (other)
# chain: MIEVLTTDSQKLLHQLNTLLEQESRCQPKVCGLKLIESAHDNGLRMTARLRDFEVKDLLSLTQFFGFDTETFSLAVNLLDRFLSKMKVQAKHLGCVGLSCFYLAVKATEEERNVPLATDLIRISQYRFTVSDLMRMEKIVLEKVCWKVKATTAFQFLQLYYSLVHDTLPFERRNDLNFERLEAQLKACHCRIIFSKAKPSVLALSILALEIQALKYVELTEGVECIQKHSKISGRDLTFWQELVSKCLTEYSSNKCSKPNGQKLKWIVSGRTARQLKHSYYRITHLPTIPETIC
# Assays:
# [1] = tested on: HCV genotypes 1, 3, and 4; test: HCV infection/replication in primary human hepatocytes, HCV RNA by RT-PCR; assay type: cell-based
# From the text: (§1) Hepatocytes were obtained (from Tissue Transformation Technologies [Edison, N.J.]) from anonymous organ donors without liver disease that were not suitable for liver transplantation for technical but not medical reasons. These donors are negative For Hepatitis A, B and C, CMV, HIV, HTLV ½, and RPR-STS. Hepatocytes cultures with >5% apoptosis by annexin-V assays and/or increases >3-fold in ALT were discarded.
# Hepatocytes were isolated from an encapsulated liver sample by a modified two-step perfusion technique introduced by Seglen (63). Briefly, the dissected lobe was placed into a custom-made perfusion apparatus and two to five hepatic vessels were cannulated with tubing attached to a multi-channel manifold. A liver fragment (150 to 500 g) was perfused initially (recirculation technique) with calcium-free HBSS supplemented with 0.5 mM EGTA for 20 to 30 min and then with 0.05% collagenase [Sigma] dissolved in L-15 medium (with calcium) at 37° C. until the tissue was fully digested. The digested liver was removed, immediately cooled with ice-cold L-15 medium and the cell suspension was strained through serial progressively smaller stainless steel sieves, with a final filtration through 100-micron and 60-micron nylon mesh. The filtered cell suspension was aliquoted into 250-ml tubes and centrifuged three times at 40 g for 3 min at 4° C. […]
# [2] = tested on: HCV E2; test: in vitro phosphorylation assay of AP50 by recombinant E2 (cell-free, 32P ATP); assay type: biochemical; details: peptide added to the phosphorylation assay
# Description: AP50 was immunopurified from untransfected primary hepatocytes and subjected to heat inactivation of any associated kinases. Recombinant wild type or mutated E2 were combined with AP50 in the presence of ^32P ATP (MP Biomedicals cat. #35020) and kinase buffer (50 mM Tris-HCL, pH 7.5, 5 mM MgCl2). The reaction was incubated at room temperature for 1 hour, and run on an SDSPAGE, transferred to a membrane and exposed to film overnight, as described previously (8; 57; 63).
# [3] = tested on: HCV-infected primary human hepatocytes; test: cell toxicity (LDH in medium) of HCV-infected primary human hepatocytes; assay type: cell-based
# Description: Toxicity of HCV E2 mutants to human hepatocyte cultures was determined by measuring lactic dehydrogenase (LDH) (Sigma) and alanine aminotransferase (ALT) (Weiner Laboratories) in the medium. Positive (Jo2 Ab) and negative (untreated cells) control samples were determined in parallel. LDH assays of culture media were measurements of cellular leakage that indicates cell injury. ALT was enriched in hepatocytes and it's presence in serum or cell culture media was a classic indicator of hepatocyte injury. Indeed, it is the FDA's gold standard for hepatocellular toxicity.
# [4] = tested on: E2; test: binding of the mutant AP50 peptide to E2; parameters: species or system HCV
# [5] = tested on: HCV-infected primary human hepatocytes; test: cell permeability and co-localization with E2 in HCV-infected primary human hepatocytes (immuno-staining, FITC tag); assay type: cell-based
# From the text: as §1
# Hepatocytes were isolated from an encapsulated liver sample by a modified two-step perfusion technique introduced by Seglen (63). Briefly, the dissected lobe was placed into a custom-made perfusion apparatus and two to five hepatic vessels were cannulated with tubing attached to a multi-channel manifold. A liver fragment (150 to 500 g) was perfused initially (recirculation technique) with calcium-free HBSS supplemented with 0.5 mM EGTA for 20 to 30 min and then with 0.05% collagenase [Sigma] dissolved in L-15 medium (with calcium) at 37° C. until the tissue was fully digested. The digested liver was removed, immediately cooled with ice-cold L-15 medium and the cell suspension was strained through serial progressively smaller stainless steel sieves, with a final filtration through 100-micron and 60-micron nylon mesh. The filtered cell suspension was aliquoted into 250-ml tubes and centrifuged three times at 40 g for 3 min at 4° C. After the last centrifugation, the cells were re-suspended, in HypoThermosol-FRS [BioLife Solutions, Inc] combined in one tube and placed on ice.
# Cells were centrifuged at 700 rpm for 5 min at 4° C., the supernatant was removed and the cells were washed with Hanks Wash Solution ([…] KCl 0.4 g/l; 4.4 mM KH2PO 0.06 g/l; […] NaCl 8 g/l; 3.4 mM Na2HPO4 0.048 g/l; 20 μL CaCl2 (2M)) three times. […]
# Fluorescent labels were observed using a triple-channel fluorescence microscope or a laser scanning confocal microscope. […] At least 100 cells were analyzed per experimental point (9). The nuclear morphology was analyzed by staining cells with TOPRO-3 (R&D Systems).
# [6] = biological target: HCV E2 Y228E mutant (hepatitis C virus (HCV), UniProt P26664 384-746, Y228E); test: co-immunopurification with anti-cyclin G antibodies, primary mouse hepatocytes
# [7] = biological target: HCV E2 Y228F mutant (hepatitis C virus (HCV), UniProt P26664 384-746, Y228F); test: as above
# [8] = primary hepatocyte infection system
# [9] = listed as dominant negative peptide of the AP50 phospho-acceptor
Molecule,"HCV replication (HCV RNA by RT-PCR) ([1]; peptide added at the time of HCV infection, genotypes 1, 3, and 4)","HCV infection [1, 8]",auto-phosphorylation of E2 [2],"phosphorylation of AP50 by recombinant E2 (E2 kinase activity) [2, 9]",phosphorylation of AP50 by recombinant E2 (E2 kinase activity) ([2]; listed as dominant negative peptide of the E2 consensus phosphorylation site),phosphorylation of AP50 by recombinant E2 (E2 kinase activity) ([2]; listed as mutant AP50 peptide),"toxicity at termination of the experiment ([3]; 120 hours, in the presence of the peptide)",LDH levels (hepatocyte toxicity) ([3]; peptide added to the media at 72 hours post HCV infection),"hepatocyte toxicity induced by the peptide [3, 8]",binding to E2 [4],cell permeability [5],co-localization / association with HCV E2 [5],"co-localization / association with HCV E2 [5, 9]",binding result [6],binding result [7]
NH2-QGEVQRRRQRRKKRGYGGGG-FITC (H-QGEVQRRRQRRKKRGYGGGG-{FITC′}) [AP50 peptide],"inhibits HCV replication of genotypes 1, 3, and 4",inhibits HCV infection,unaffected,blocks the in vitro kinase activity of E2,blocked,able to block the phosphorylation of AP50 by recombinant E2 in vitro; also recorded: blocks AP50 phosphorylation by E2,comparable to that of uninfected cells,LDH levels began to decrease,without inducing hepatocyte toxicity,high affinity,cell permeable,co-localized with HCV E2,associates with E2,,
B1,,,,,,,,,,,,,,no binding,no binding

# From patent US20110097332A1, “Composition and Method of Use for HCV Immunization” (priority 2007, published 2011)
